In patent publication US10253012B2, “Method and apparatus for preparation of lactide using lactide purification process” (priority 2015, dated 2019):

Assay: Solubility of lactide in different solvents
Format: physicochemical

solubility of lactide in ethanol (ethanol as first solvent, temperature maintained at 20 °C): ≤ 10 wt %
solubility of lactide in γ-butyrolactone (in words) (solvent γ-butyrolactone, no solid crystal formed in condenser at 5 °C): high solubility
Compound: CC1OC(=O)C(C)OC1=O (centres unmarked) [lactide]
